Laboratory results: patent publication US20120156230A1, “TREATMENT OF SPINAL CORD INJURY AND TRAUMATIC BRAIN INJURY USING PLACENTAL STEM CELLS” (priority 2010, published 2012)

Legend:
[1] = tested on: T cells (Th1 skewing); experiment: Th1 skewing culture; assay type: cell-based; details: BTR with IL-2, IL-12, anti-IL-4 cocktail
Description: To investigate the molecular mechanism of action of PDAC-mediated suppression of Th1 skewing, IDO siRNA was transiently transfected into PDACs by standard techniques. Th1 skewing was carried out as for the BTR reactions (see above) but supplemented with an additional Th1 skewing cytokine cocktail containing IL-2 (200 IU/mL), IL-12 (2 ng/mL) and anti-IL-4 (0.4 μg/ml).

[2] = target: T1, indoleamine 2,3-dioxygenase (IDO) (Homo sapiens, UniProt P14902); experiment: BTR T cell proliferation assay with IDO blockade; assay type: cell-based; details: 256 μM
T1 construct: endogenous in cells; host or cells: PDACs (placental stem cells) co-cultured with T cells in the BTR assay
Description: To investigate the mechanism of action of PDAC-mediated suppression of T cell proliferation, pharmacological inhibitors or neutralizing antibodies were used to block the activity of prostaglandin E2 (PGE2), inducible nitric oxide synthase (iNOS), transforming growth factor beta (TGF-β), interleukin-10 (IL-10) and IDO in an in vitro T cell proliferation assay (BTR).

[3] = tested on: chick chorioallantoic membrane (CAM); experiment: CAM angiogenesis assay using PDAC supernatants; assay type: in vivo; details: supernatant mixed with MATRIGEL 1:1; PDAC supernatants P<0.01, P<0.001, P<0.02; bFGF P<0.001
Description: Supernatant samples from MDA-MB-231 cells and PDACs were used in a second CAM assay as described above. bFGF and MDA-MB-231 supernatants were used as positive controls, medium and vehicle were used as negative controls.
Study Design: The study included 5 groups with 10 embryos in each group. The design of the study is described in Table 4.
CAM Assay Procedure: The assay procedure was the same as described in section 6.3.1, above. The only difference was that supernatant from each stem cell preparation or from MDA-MB-231 cells was used as test material. For dosing, each supernatant was mixed with MATRIGEL™ (1:1 by volume) and […] of the mixture was dosed to each embryo.

[4] = tested on: chick chorioallantoic membrane (CAM); experiment: CAM angiogenesis assay using PDACs; assay type: in vivo; details: P<0.001, Student's t test
Description: Two separate CAM assays were conducted. In the first CAM assay, intact cell pellets from different preparations of PDAC were evaluated. In the second CAM assay, supernatants of different PDAC preparations were evaluated. Fibroblast growth factor (bFGF) was used as a positive control, and MDA-MB-231 human breast cancer cells as a reference, vehicle and medium controls were used as negative controls. The endpoint of the study was to determine the blood vessel densities of all treatment and control groups.
PDACs, prepared as described above and cryopreserved, were used. PDACs were thawed for dosing and the number of cells dosed on the CAM was determined. […]
CAM Assay Procedure: Fresh fertile eggs were incubated for 3 days in a standard egg incubator at 37° C. for 3 days. […] On Day 8, embryos were removed from the incubator and kept at room temperature while blood vessel density was determined under each “O” ring using an image capturing system at a magnification of 100×.
Blood vessel density was measured by an angiogenesis scoring system that used arithmetic numbers 0 to 5, or exponential numbers 1 to 32, to indicate the number of blood vessels present at the treatment sites on the CAM. […] The percent of inhibition at each dosing site was calculated using the score recorded for that site divided by the mean score obtained from control samples for each individual experiment. […]

T1 sequence (P14902 whole entry): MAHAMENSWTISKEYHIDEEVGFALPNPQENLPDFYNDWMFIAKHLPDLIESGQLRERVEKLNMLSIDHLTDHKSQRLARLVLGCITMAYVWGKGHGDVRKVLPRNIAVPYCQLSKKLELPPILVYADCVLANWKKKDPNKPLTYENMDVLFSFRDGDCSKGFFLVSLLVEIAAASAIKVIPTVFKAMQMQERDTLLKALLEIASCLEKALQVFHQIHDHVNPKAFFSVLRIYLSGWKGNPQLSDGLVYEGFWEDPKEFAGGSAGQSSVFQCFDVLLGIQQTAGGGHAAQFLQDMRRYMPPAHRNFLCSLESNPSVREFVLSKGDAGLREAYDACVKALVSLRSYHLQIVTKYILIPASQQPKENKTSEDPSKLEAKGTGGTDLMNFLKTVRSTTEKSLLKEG

| rescue of T cell proliferation from PDAC-mediated suppression [2] | Molecule | rescue of PDAC-mediated suppression of Th1 skewing [1] | blood vessel induction versus vehicle controls [3] | blood vessel density score versus vehicle control CAMs [4] |
| --- | --- | --- | --- | --- |
|  | Cn1cc(C[C@H](N)C(=O)O)c2ccccc21 [1 MT, 1-methyl tryptophan] | completely rescued |  |  |
| substantially rescued | N[C@@H](Cc1c[nH]c2ccccc12)C(=O)O [L-Trp, L-trptophan] | completely rescued |  |  |
|  | bFGF: basic fibroblast growth factor (positive control) |  | potent induction of blood vessel formation | statistically significantly higher |
